Like-named read-outs stand apart in the source and are kept apart here.

One assay concerns the target T1, TLR8 (Homo sapiens, UniProt Q9NR97).
T1 construct: human HEK-Blue cells co-expressing a TLR7 or TLR8 gene
T1 sequence (Q9NR97 27-1041): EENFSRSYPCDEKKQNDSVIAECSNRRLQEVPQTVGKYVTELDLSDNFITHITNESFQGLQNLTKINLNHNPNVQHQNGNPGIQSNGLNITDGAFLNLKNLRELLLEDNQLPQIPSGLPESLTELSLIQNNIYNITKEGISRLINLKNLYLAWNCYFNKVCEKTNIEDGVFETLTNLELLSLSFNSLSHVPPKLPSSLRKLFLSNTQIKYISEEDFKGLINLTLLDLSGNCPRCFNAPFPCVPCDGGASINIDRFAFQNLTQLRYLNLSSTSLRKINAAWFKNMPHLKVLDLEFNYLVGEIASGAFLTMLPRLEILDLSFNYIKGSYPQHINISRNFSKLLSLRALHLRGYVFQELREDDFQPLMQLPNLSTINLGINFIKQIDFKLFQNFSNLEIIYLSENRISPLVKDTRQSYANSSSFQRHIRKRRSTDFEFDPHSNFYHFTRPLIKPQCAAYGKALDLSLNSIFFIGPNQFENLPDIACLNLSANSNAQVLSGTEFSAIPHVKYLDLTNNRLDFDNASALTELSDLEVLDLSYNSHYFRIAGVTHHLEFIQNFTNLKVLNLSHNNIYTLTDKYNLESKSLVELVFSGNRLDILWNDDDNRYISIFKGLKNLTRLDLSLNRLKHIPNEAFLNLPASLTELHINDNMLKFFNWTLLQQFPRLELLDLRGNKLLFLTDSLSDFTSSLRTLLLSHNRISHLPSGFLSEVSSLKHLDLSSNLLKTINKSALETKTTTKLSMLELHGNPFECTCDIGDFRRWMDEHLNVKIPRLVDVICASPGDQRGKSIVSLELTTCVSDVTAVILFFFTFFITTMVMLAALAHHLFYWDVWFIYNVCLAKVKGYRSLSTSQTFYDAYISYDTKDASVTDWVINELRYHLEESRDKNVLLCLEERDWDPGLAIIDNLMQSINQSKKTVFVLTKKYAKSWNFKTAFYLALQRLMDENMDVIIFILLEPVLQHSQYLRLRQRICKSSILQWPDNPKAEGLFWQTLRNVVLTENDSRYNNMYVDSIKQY
Briefly: In vitro human TLR8 binding reporter assay (HEK-Blue, NF-kB/AP1-inducible SEAP). The assay is classed as cell-based. The conditions noted are these: read-out: TLR8 Agonist EC50. In a few lines:
(§1)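 Cells are seeded and grown for 24 h. Compounds or DMSO are then added and incubated 18 h at 37 °C. Quanti-Blue is added, and SEAP is read after thirty minutes. EC50 values are normalized, with RLU from 50 μM reference standard setting 100% Ymax.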

The next assay deals with T2, TLR7 (Homo sapiens, UniProt Q9NYK1).
T2 construct: human HEK-Blue cells co-expressing a TLR7 or TLR8 gene
T2 sequence (Q9NYK1 27-1049): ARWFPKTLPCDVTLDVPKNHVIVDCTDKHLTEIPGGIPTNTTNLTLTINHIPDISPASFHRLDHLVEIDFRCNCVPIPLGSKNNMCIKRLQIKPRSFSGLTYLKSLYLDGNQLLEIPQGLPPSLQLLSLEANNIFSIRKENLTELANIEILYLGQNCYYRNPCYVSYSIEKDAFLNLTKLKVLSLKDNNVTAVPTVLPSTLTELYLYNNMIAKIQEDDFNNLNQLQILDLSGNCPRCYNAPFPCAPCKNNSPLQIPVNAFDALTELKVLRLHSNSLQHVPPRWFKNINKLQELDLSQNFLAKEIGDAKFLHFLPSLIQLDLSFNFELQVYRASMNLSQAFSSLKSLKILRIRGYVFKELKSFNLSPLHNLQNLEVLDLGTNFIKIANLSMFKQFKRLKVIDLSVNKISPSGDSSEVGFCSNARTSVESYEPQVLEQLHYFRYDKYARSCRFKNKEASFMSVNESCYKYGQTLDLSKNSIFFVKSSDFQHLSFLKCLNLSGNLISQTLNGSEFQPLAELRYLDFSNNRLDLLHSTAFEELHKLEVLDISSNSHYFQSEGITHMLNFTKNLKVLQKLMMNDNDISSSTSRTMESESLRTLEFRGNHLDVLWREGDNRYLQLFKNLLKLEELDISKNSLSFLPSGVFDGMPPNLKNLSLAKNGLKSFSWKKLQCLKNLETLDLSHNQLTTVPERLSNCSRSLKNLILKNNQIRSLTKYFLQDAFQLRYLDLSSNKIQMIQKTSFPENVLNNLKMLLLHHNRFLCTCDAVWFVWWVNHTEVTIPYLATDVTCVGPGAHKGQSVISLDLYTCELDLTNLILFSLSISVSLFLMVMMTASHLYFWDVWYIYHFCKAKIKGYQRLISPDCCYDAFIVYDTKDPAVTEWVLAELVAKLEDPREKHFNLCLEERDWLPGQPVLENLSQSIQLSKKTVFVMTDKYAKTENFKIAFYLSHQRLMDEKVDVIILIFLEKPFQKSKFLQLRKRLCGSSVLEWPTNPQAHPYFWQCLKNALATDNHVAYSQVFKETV
Briefly: In vitro human TLR7 binding reporter assay (HEK-Blue, NF-kB/AP1-inducible SEAP). The assay is classed as cell-based. The conditions noted are these: read-out: TLR7 Agonist EC50. In a few lines:
as §1

The next assay concerns THP-1 cells. Briefly: Measurement of IL-1β production, hTRF protocol (second alternative procedure), THP-1 cells. The conditions noted are these: Homo sapiens. The assay is classed as cell-based, human. The essentials: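 THP-1 cells differentiated overnight with 50 ng/ml PMA, then plated at 50,000 cells/well in RPMI with 2% FBS onto serial compound dilutions (top final concentration 10 μM) for 2 hours at 37° C. Supernatant IL-1β measured by hTRF (antibodies at 1:40, overnight at 4° C), read at 665/615 nm against a standard curve.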

[1] abbreviates: THP-1, IL-1β production, human, read-out: NLRP3 hILIB EC50.
Setting [2] is: THP-1, IL-1β production, human cells, read-out: NLRP3 hILIB EC50.

On to `Nc1nc2cc(-c3cc[nH]n3)ccc2c2cn(CCCNC(=O)c3ccccc3)nc12` [Example 123, N-{3-[4-amino-7-(1H-pyrazol-3-yl)-2H-pyrazolo[3,4-c]quinolin-2-yl]propyl}benzamide], for which the concentration giving a half-maximal response (EC50) (in general, the concentration at which the effect is half-maximal) was over 100 µM on TLR8 (activity range class); over 100 µM at TLR7 (activity range class); 9.02 µM in the assay with THP-1 cells (THP-1, read-out: NLRP3 hILIB EC50).

`Nc1nc2cc(-c3cc[nH]n3)ccc2c2nn(CCOC(F)(F)F)cc12` [Example 352]: the EC50 is over 100 µM on TLR8 (activity range class), over 100 µM at TLR7 (activity range class) and 0.08 µM with THP-1 cells (setting [1]).

Consider `CC(CC(=O)N1CCOCC1)n1cc2c(N)nc3cc(-c4cc[nH]n4)ccc3c2n1` (stereo not drawn) [Example 616], for which the concentration for a half-maximal effect (EC50) was over 100 µM at TLR8 (activity range), over 100 µM at TLR7 (activity range) and 9.56 µM in the assay on THP-1 cells (setting [2]).

As to `CC(C)S(=O)(=O)NCCc1cc2c(N)nc3cc(-c4cc[nH]n4)ccc3c2[nH]1` [Example 483], the EC50 is over 100 µM at TLR8 (activity range), over 100 µM on TLR7 (activity range) and 1.1 µM with THP-1 cells (setting [2]).

For `Nc1nc2cc(-c3cc[nH]n3)ccc2c2cn(CCNC(=O)c3csc(-c4ccncc4)n3)nc12` [Example 86], the figures for the EC50 at TLR8 (activity range class), at TLR7 (activity range class) and in the assay with THP-1 cells (setting [1]) were over 100 µM, over 100 µM and 2.77 µM, respectively.

For the molecule `CCNC(=O)CCn1cc2c(N)nc3cc(-c4cc[nH]n4)ccc3c2n1` [Example 517], the concentration for a half-maximal effect (EC50) is over 100 µM on TLR8 (activity range), over 100 µM on TLR7 (activity range) and 1.72 µM in the assay on THP-1 cells (setting [2]).

Consider `COCC(=O)NC(C)Cn1cc2c(N)nc3cc(-c4ccn[nH]4)ccc3c2n1` (stereo not drawn) [Example 296], for which the EC50 on TLR8 (activity range class) was over 100 µM; at TLR7 (activity range class), over 100 µM; with THP-1 cells (setting [1]) it was 1.7 µM.

Take `Nc1nc2cc(-c3cc[nH]n3)ccc2c2cn(CCNC(=O)c3cc(CO)ccn3)nc12` [Example 57]: the results for the EC50 at TLR8 (activity range class), at TLR7 (activity range class) and in the assay with THP-1 cells (setting [1]) were over 100 µM, over 100 µM and 2.21 µM, respectively.

On to `Nc1nc2cc(-c3cc[nH]n3)ccc2c2cn(CCNC(=O)c3cc(F)ccn3)nc12` [Example 54], for which the EC50 at TLR8 (activity range class) is over 100 µM; at TLR7 (activity range class) it was 20 to 100 µM; in the assay on THP-1 cells (setting [1]), 0.19 µM.

Regarding `CC(C)(O)CCn1ncc2c(N)nc3cc(-c4cc[nH]n4)ccc3c21` [Example 427], the concentration giving a half-maximal response (EC50) at TLR8 (activity range) is over 100 µM; on TLR7 (activity range), over 100 µM; with THP-1 cells (setting [2]), 2.01 µM.

As to `Cn1cnc(C(=O)NCCn2cc3c(n2)c(N)nc2cc(-c4cc[nH]n4)ccc23)c1` [Example 87], the concentration for a half-maximal effect (EC50) on TLR8 (activity range class) was over 100 µM; on TLR7 (activity range class), over 100 µM; in the assay with THP-1 cells (setting [1]) it was 1.03 µM.

For `CC(C)(F)C(=O)N1CCOCC1Cn1cc2c(N)nc3cc(-c4ccn[nH]4)ccc3c2n1` (stereo not drawn) [Example 264], the values for the EC50 at TLR8 (activity range class), at TLR7 (activity range class) and in the assay with THP-1 cells (setting [1]) were over 100 µM, over 100 µM and 0.99 µM, respectively.

With `Cc1nc(C(=O)NCCn2cc3c(n2)c(N)nc2cc(-c4cccs4)ccc23)co1` [Example 128, N-{2-[4-amino-7-(thiophen-2-yl)-2H-pyrazolo[3,4-c]quinolin-2-yl]ethyl}-2-methyl-1,3-oxazole-4-carboxamide], the EC50 is over 100 µM on TLR8 (activity range class), over 100 µM at TLR7 (activity range class) and 0.36 µM in the assay on THP-1 cells (setting [1]).

As for `COCCn1cc2c(N)nc3cc(-c4cc[nH]n4)ccc3c2n1` [Example 207, 2-(2-methoxyethyl)-7-(1H-pyrazol-3-yl)-2H-pyrazolo[4,3-c]quinolin-4-amine], the values for the EC50 on TLR8 (activity range class), at TLR7 (activity range class) and with THP-1 cells (setting [1]) were over 100 µM, over 100 µM and 0.14 µM, respectively.

Turning to `CC(C(=O)NC(C)(C)CO)n1cc2c(N)nc3cc(-c4ccn[nH]4)ccc3c2n1` (stereo not drawn) [Example 574], the EC50 on TLR8 (activity range) is over 100 µM; on TLR7 (activity range), over 100 µM; in the assay with THP-1 cells (setting [2]) it was 14 µM.

On to `CC(=O)NC(C)CCn1cc2c(N)nc3cc(-n4cccn4)ccc3c2n1` (stereo not drawn) [Example 425], for which the concentration for a half-maximal effect (EC50) at TLR8 (activity range) is over 100 µM; on TLR7 (activity range), over 100 µM; in the assay with THP-1 cells (setting [2]) it was 5.73 µM.

In the case of `CC[C@H](O)Cn1cc2c(N)nc3cc(-c4cc[nH]n4)ccc3c2n1` [Example 367], the EC50 on TLR8 (activity range class) is over 100 µM; on TLR7 (activity range class), over 100 µM; in the assay with THP-1 cells (setting [1]), 0.23 µM.

(Values after US12037344B2, “NLRP3 modulators” (INNATE TUMOR IMMUNITY, INC., priority 2018, dated 2024).)
